Experimental findings from the OligoGym collection are described below.

The data set addresses IRF4. The following applies: ASO.

Where “and” joins values, the source holds several entries; their conditions need not be identical. Identical values can stand only once. After the bases stand the sugars from the 5' end (letter, count) and the backbone: PS all phosphorothioate, else s phosphorothioate and o phosphodiester by linkage. Methylation of C is not given here. e = 2'-O-(2-methoxyethyl) (MOE); k = constrained ethyl (cEt); d = 2'-deoxy (DNA)

For the sequence CCGAGATATAAATAGC (sugars k3 d10 k3, PS), the target mRNA inhibition was found to be 3% (MM.1R, 0.0625 µM); 7% (MM.1R, 0.074 µM); 9% (MM.1R, 0.222 µM); 12% (MM.1R, 0.25 µM); 22% (MM.1R, 0.666 µM); 25% (MM.1R, 1 µM). Also, the target mRNA inhibition (MM.1R, 2 µM) amounted to 38%; the target mRNA inhibition (MM.1R, 4 µM) worked out at 52%; the target mRNA inhibition (SK-MEL-28, 4 µM) was 61%. As for CCGCAAAAGAAACGAG (sugars k3 d10 k3, PS), the target mRNA inhibition (MM.1R, 1 µM) is -7%. As for CCGCAGCTCACCGCGC (sugars k3 d10 k3, PS), the target mRNA inhibition (SK-MEL-28, 4 µM) amounted to 36%. Turning to CCGCCCGCTCTGCTCT (sugars k3 d10 k3, PS), the target mRNA inhibition (SK-MEL-28, 4 µM) was found to be 54%. Consider CCGCTCAACCAGTTCC (sugars k3 d10 k3, PS), for which, under “MM.1R, 1 µM”, the target mRNA inhibition is -12%. As to CCGGAAGAAGGCACCT (sugars k3 d10 k3, PS), the target mRNA inhibition (SK-MEL-28, 4 µM) turned out to be 17%. Regarding CCGGAGTCAGTGCTGG (sugars k3 d10 k3, PS), the target mRNA inhibition (SK-MEL-28, 4 µM) was -7%. As to CCGGGTTCCTCCACCC (sugars k3 d10 k3, PS), the target mRNA inhibition (SK-MEL-28, 4 µM) was 9%.

Turning to CCGTCCCAGTAGATCC (sugars k3 d10 k3, PS), the target mRNA inhibition (SK-MEL-28, 4 µM) was found to be 25%. CCGTTCCTTTTTTAGT (sugars k3 d10 k3, PS): under “MM.1R, 1 µM”, the target mRNA inhibition was -3%. As to CCTACAAAATGCCTCC (sugars k3 d10 k3, PS), the target mRNA inhibition (SK-MEL-28, 4 µM) was 47%. Same read-out and setting: the same measure for CCTACAAGCAGTCATC (sugars k3 d10 k3, PS): 54%; for CCTAGAGGTGCCTTCT (sugars k3 d10 k3, PS): 41%.

In the case of “CCTCAGTTTGTGAAGC (sugars k2 d9 e3 k2, PS)”, the target mRNA inhibition (MM.1R, 1 µM) was determined as 33%. With “CCTCAGTTTGTGAAGC (sugars kkddddddddddkeke, PS)”, under “MM.1R, 1 µM”, the target mRNA inhibition worked out at 16%. The same measure, in the same setting: the same measure for “CCTCAGTTTGTGAAGC (sugars kkdddddddddekeke, PS)”: 21%; for “CCTCAGTTTGTGAAGC (sugars kkkdddddddddkeke, PS)”: 8%. For “CCTCAGTTTGTGAAGC (sugars kkkddddddddkekek, PS)”, the target mRNA inhibition (MM.1R, 1 µM) is 3%. On to CCTCCATTCTAACAGA (sugars k4 d8 k4, PS), for which the target mRNA inhibition (SK-MEL-28, 4 µM) was -22%. Still for that read-out and setting: the same measure for CCTGAAGCTTAGTTAT (sugars k3 d10 k3, PS): 35%; for CCTGGCGGAGCATCAA (sugars k3 d10 k3, PS): 42%. Regarding CCTGGGACTCAGGTGG (sugars k3 d10 k3, PS), the target mRNA inhibition (MM.1R, 0.074 µM) was determined as 6%; the target mRNA inhibition (MM.1R, 0.222 µM) was -6%; the target mRNA inhibition (MM.1R, 0.666 µM) was determined as 0%; the target mRNA inhibition (MM.1R, 2 µM) worked out at 13%; the target mRNA inhibition (SK-MEL-28, 0.185 µM) came out at 9%; the target mRNA inhibition (SK-MEL-28, 4 µM) was 59%. Besides, the target mRNA inhibition is, setting by setting: (SK-MEL-28, 5 µM) 64%; (SK-MEL-28, 15 µM) 91%. Regarding CCTGGTCCAGGTTGCT (sugars k3 d10 k3, PS), for the setting “SK-MEL-28, 4 µM”, the target mRNA inhibition was found to be 26%.

Take CCTGTACACTTTGTAC (sugars k3 d10 k3, PS): under “MM.1R, 1 µM”, the target mRNA inhibition was -2%.

On to CCTTAGGAACGAAGAG (sugars k3 d10 k3, PS), for which the target mRNA inhibition (MM.1R, 1 µM) is -6%. As to CCTTATTAGACTGACA (sugars k3 d10 k3, PS), the target mRNA inhibition (SK-MEL-28, 4 µM) was 48%. As to CCTTTAGTGTCGCCAT (sugars k3 d10 k3, PS), the target mRNA inhibition (SK-MEL-28, 4 µM) amounted to 58%.

CGAAACACAGTCTGCT (sugars k3 d10 k3, PS): where the note is “SK-MEL-28, 4 µM”, the target mRNA inhibition is 53%.

CGACAAGTGGCGCAGA (sugars k3 d10 k3, PS): the target mRNA inhibition (MM.1R, 1 µM) was found to be 2%. Take CGACAGCATAGCATTA (sugars k3 d10 k3, PS): the target mRNA inhibition (SK-MEL-28, 4 µM) was 75%. Still for that read-out and setting: the same measure for CGACAGCTAAAGAACA (sugars k3 d10 k3, PS): 37%.

Take CGAGAACGCACGGACG (sugars k3 d10 k3, PS): the target mRNA inhibition (MM.1R, 1 µM) was -11%. Turning to CGAGAAGAGAGGCTGA (sugars k3 d10 k3, PS), the target mRNA inhibition (SK-MEL-28, 4 µM) came out at 7%. On the same count and under the same terms, next, CGAGATATAAATAGCT (sugars k3 d10 k3, PS): 53% and 58%. As for CGAGGTTGCCGAGATA (sugars k3 d10 k3, PS), the target mRNA inhibition (MM.1R, 1 µM) is 66% and 60%. As for CGCAATCTTCTGCTGA (sugars k3 d10 k3, PS), the target mRNA inhibition (SK-MEL-28, 4 µM) was determined as 64%. The same measure, in the same setting: next, CGCAATTCTCCTCAAC (sugars k3 d10 k3, PS): 38%; CGCACTAAGTGGGCTC (sugars k3 d10 k3, PS): 14%. On to CGCACTCCGGGCACCC (sugars k3 d10 k3, PS), for which the target mRNA inhibition (MM.1R, 1 µM) was 11%.

As to CGCATAGAGCCCGTCG (sugars k3 d10 k3, PS), the target mRNA inhibition (SK-MEL-28, 4 µM) was 53%. As for CGCATAGGTCCTTCAG (sugars k3 d10 k3, PS), the target mRNA inhibition (MM.1R, 1 µM) worked out at 6%.

For the sequence CGCCAGCCAGATGTTT (sugars k3 d10 k3, PS), for the setting “MM.1R, 1 µM”, the target mRNA inhibition is -15%. In the case of CGCCATGGCTGATCGC (sugars k3 d10 k3, PS), for the setting “SK-MEL-28, 4 µM”, the target mRNA inhibition was 53%.

In the case of CGCCCAATCACCTTCC (sugars k3 d10 k3, PS), where the note is “MM.1R, 1 µM”, the target mRNA inhibition is -19%. Take CGCCGGACCCCGGAGC (sugars k3 d10 k3, PS): for the setting “SK-MEL-28, 4 µM”, the target mRNA inhibition was found to be 9%. For the sequence CGCCGGAGGCCGCCGT (sugars k3 d10 k3, PS), the target mRNA inhibition (SK-MEL-28, 4 µM) amounted to 3%. Same read-out and setting: next, CGCGGACGCACGGAGA (sugars k3 d10 k3, PS): 19%.

Regarding CGCGGAGGACCTCGCC (sugars k3 d10 k3, PS), the target mRNA inhibition (MM.1R, 1 µM) was -7%. Take CGCTCATGCCGAACTC (sugars k3 d10 k3, PS): the target mRNA inhibition (SK-MEL-28, 4 µM) was 11%.

For the sequence CGCTGAATTGTCATGA (sugars k3 d10 k3, PS), the target mRNA inhibition (MM.1R, 1 µM) is -1%. As for CGCTGGACAGCCAAAC (sugars k3 d10 k3, PS), where the note is “SK-MEL-28, 4 µM”, the target mRNA inhibition amounted to 41%. On the same count and under the same terms, the same measure for CGCTTTCACTAAAGTC (sugars k3 d10 k3, PS): 71%; for CGGACGAACGCGCAAA (sugars k3 d10 k3, PS): 39%. As to CGGAGGTTCCTTGAGG (sugars k3 d10 k3, PS), the target mRNA inhibition (H929, 0.04 µM) is 5% and 10%; the target mRNA inhibition (KMS11, 0.2 µM) was 28% and 21%; the target mRNA inhibition (MM.1R, 0.0625 µM) is 6%; the target mRNA inhibition (MM.1R, 0.25 µM) turned out to be 29%; the target mRNA inhibition (MM.1R, 1 µM) was 42% and 52%; the target mRNA inhibition (MM.1R, 4 µM) was found to be 64%. As to CGGCAGACGGGAGCCC (sugars k3 d10 k3, PS), where the note is “SK-MEL-28, 4 µM”, the target mRNA inhibition was determined as 12%. Still for that read-out and setting: next, CGGCTCCTCCTCCTTT (sugars k3 d10 k3, PS): 11%. On the same count and under the same terms, the same measure for CGTAAACTGAAAGACC (sugars k3 d10 k3, PS): 48%. In the case of CGTATTTGTCGAGATC (sugars k3 d10 k3, PS), the target mRNA inhibition (SK-MEL-28, 4 µM) worked out at 50%.

As to CGTCGCAGGAGCGCGG (sugars k3 d10 k3, PS), under “MM.1R, 1 µM”, the target mRNA inhibition stood at 1%. As to CGTCTTCCAGGTGGGA (sugars k3 d10 k3, PS), the target mRNA inhibition (SK-MEL-28, 4 µM) came out at 16%. The same measure, in the same setting: the same measure for CGTGAGAATGTTGGCT (sugars k3 d10 k3, PS): 49%. Turning to CGTGTGCTTGCCAAGC (sugars k3 d10 k3, PS), the target mRNA inhibition (MM.1R, 0.0625 µM) is -3%; the target mRNA inhibition (MM.1R, 0.25 µM) came to 31%; the target mRNA inhibition (MM.1R, 1 µM) is 67% and 66% and 56%; the target mRNA inhibition (MM.1R, 4 µM) is 81%.

In the case of “CGTGTGCTTGCCAAGC (sugars kkddddddddddkeke, PS)”, the target mRNA inhibition (MM.1R, 1 µM) is 55% and 45%. Take CGTTCTCCCACACCAG (sugars k3 d10 k3, PS): the target mRNA inhibition (SK-MEL-28, 4 µM) stood at 48%. As to CTAAAACTGCGCTCTC (sugars k3 d10 k3, PS), where the note is “SK-MEL-28, 4 µM”, the target mRNA inhibition stood at 24%.

Consider CTAAAGGAGTGCAGGA (sugars k3 d10 k3, PS), for which the target mRNA inhibition (SK-MEL-28, 4 µM) was found to be 6%. Still for that read-out and setting: next, CTAAATCACCCTGGTC (sugars k3 d10 k3, PS): 47%. Consider CTAATGGTGCTCCTAA (sugars k3 d10 k3, PS), for which, where the note is “MM.1R, 1 µM”, the target mRNA inhibition is 4%. With CTAATTCCATAGAGCC (sugars k3 d10 k3, PS), the target mRNA inhibition (MM.1R, 0.0625 µM) came out at 2%; the target mRNA inhibition (MM.1R, 0.074 µM) is -13%; the target mRNA inhibition (MM.1R, 0.222 µM) was -6%; the target mRNA inhibition (MM.1R, 0.25 µM) was found to be 8%; the target mRNA inhibition (MM.1R, 0.666 µM) was 4%; the target mRNA inhibition (MM.1R, 1 µM) turned out to be 47%. Further, the target mRNA inhibition is 20% (MM.1R, 2 µM); 88% (MM.1R, 4 µM); 80% (SK-MEL-28, 4 µM).

With CTACACAGGCTAATCA (sugars k3 d10 k3, PS), the target mRNA inhibition (MM.1R, 1 µM) turned out to be 4%. CTACACTTCCAAGCAA (sugars k3 d10 k3, PS): the target mRNA inhibition (SK-MEL-28, 4 µM) was -5%. As for CTACTTCAGCTACATT (sugars k3 d10 k3, PS), under “SK-MEL-28, 4 µM”, the target mRNA inhibition worked out at 47%. With CTAGACAGAGAGTCCG (sugars k3 d10 k3, PS), the target mRNA inhibition (MM.1R, 1 µM) was found to be 5%. CTAGATTGTAGGACAG (sugars k3 d10 k3, PS): where the note is “SK-MEL-28, 4 µM”, the target mRNA inhibition turned out to be 48%. On the same count and under the same terms, the same measure for CTAGGTTTCAGTTGTA (sugars k3 d10 k3, PS): 54%. For the sequence CTAGTCGCGCAAGTCT (sugars k3 d10 k3, PS), the target mRNA inhibition (MM.1R, 1 µM) was -4%.

With CTAGTTTAAGGGTTAC (sugars k3 d10 k3, PS), the target mRNA inhibition (SK-MEL-28, 4 µM) was 27%.

Turning to “CTATAGTGTTCCAGGA (sugars e1 k2 d9 k2 e2, PS)”, the target mRNA inhibition (MM.1R, 1 µM) worked out at 8%. As to “CTATAGTGTTCCAGGA (sugars k2 d9 e3 k2, PS)”, the target mRNA inhibition (MM.1R, 1 µM) worked out at 34%. Consider CTATAGTGTTCCAGGA (sugars k3 d10 k3, PS), for which the target mRNA inhibition (SK-MEL-28, 4 µM) worked out at 66%. Regarding “CTATAGTGTTCCAGGA (sugars kddddddddddkekek, PS)”, the target mRNA inhibition (MM.1R, 1 µM) stood at 34%.
